Data: ChEMBL document CHEMBL1128799, “Design and synthesis of a conformationally constrained analog of the bis(heteroaryl)piperazine (BHAP) HIV-1 reverse transcriptase inhibitor atevirdine” (Bioorg Med Chem Lett, 1995)
Structures can show the parent of a compound that is named as a salt.

Legend:
[1] = target: Human immunodeficiency virus type 1 reverse transcriptase (Human immunodeficiency virus 1) (UniProt Q72547); test: Compound was tested in vitro for percent inhibition of HIV- I reverse transcriptase (RT) at dose 100 uM
[2] = tested on: Human immunodeficiency virus 1; test: Effective dose was evaluated for the inhibition of viral replication (PBMC); type: functional; conditions: read-out: ED50 (the source's name)

Row | Structure (SMILES) | inhibition [1] | EC50 [2]
1 | CCN1CC2(CCN(C(=O)c3cc4cc(NS(C)(=O)=O)ccc4[nH]3)CC2)c2ncccc21 | 38% | 
2 | CC(C)Nc1cccnc1N1CCN(C(=O)c2cc3cc(NS(C)(=O)=O)ccc3[nH]2)CC1 [DELAVIRDINE MESYLATE] |  | 0.1 nM
3 | CCNc1cccnc1N1CCN(C(=O)c2cc3cc(OC)ccc3[nH]2)CC1 [ATEVIRDINE SULPHATE] |  | 1 nM
